From article PMC6960190, “Systemic Evaluation on the Pharmacokinetics of Platinum-Based Anticancer Drugs From Animal to Cell Level: Based on Total Platinum and Intact Drugs” (Frontiers in Pharmacology, 2020)
Several values for one entry are separate records, joined by “and”; a condition that tells them apart may be missing. Equal values may be shown once.

Assays:
[1] = Pharmacokinetics of intact platinum-based drugs in rats (UPLC-MS/MS) in blood, plasma and ultrafiltrate plasma; settings: intraperitoneal; for complete elimination time of intact drug: equal moles, plasma and ultrafiltrate plasma
Experimental: The biological samples were pretreatmented by precipitation with acetonitrile. To each 50 µl sample volume, 200 µl of acetonitrile containing IS (25 ng/ml) was added. The samples were then centrifuged for 10 min at 15,000 rpm, after which 5 µl of the supernatant was injected into the UPLC column for analysis of intact drug.
The ACQUITY UPLC I class system consisted of an autosampler, pump, column oven, and controller (waters, MA, USA). Chromatographic separation was performed on an ACQUITY UPLC BEH Amide column (Part NO:186004800, 1.7 µm, 2.1 × 50mm, Waters, MA, USA) and the pre-column is ACQUITY UPLC BEH C18 (1.7µm, Waters, MA, USA). The binary mobile phase consisted of mobile phase B: acetonitrile and mobile phase A: water containing 5 mm ammonium acetate. The injection volume was 5 µl and the column temperature was 40°C. The gradient program was as follows: 0–1 min, 95% phase B; 1–2 min, 95–70% phase B; 2–4 min,70% phase B; 4–5 min, 70–95% phase B; 5–7min, 95% phase B. The total run time is 7.0 min and the flow rate was set at 0.6 ml/min.
The UPLC system was interfaced with a Xevo TQ-XS Mass Spectrometer with MassLynx V4.2 software package (Waters, MA, USA). The mass spectrometer was operated using Turbo Spray source in positive multiple-reaction monitoring-mode (MRM) for intact drug determination. […] The optimal parameters for MS/MS conditions are as follows: capillary 2.4 kV; cone 25 V; desolvation temperature 450 °C.
The assay method was evaluated with four kinds of matrix including blood, plasma, ultrafiltrate plasma, and cell lysate. […] The precision and accuracy for three intact platinum-based drugs in blood/plasma/ultrafiltrate plasma were investigated by replicate analysis of six sets of samples at four concentration levels: 2, 5, 200, and 4,000 ng/ml. The precision and accuracy for the assay method in cell lysate were investigated at four concentration levels of 2, 5, 20, and 160 ng/ml.
(§1) Male Sprague-Dawley rats (n = 18, 200 ± 20g) were provided by Shanghai Jiesijie Experimental Animal Co., Ltd (Shanghai, China) and certificate number was scxk (hu) 2013-0006. Animals were allowed to adapt to the housing environment for 1 week prior to study. […] All animal studies were approved by the Animal Ethics Committee of China Pharmaceutical University.
(§2) Blood-sampling times were arranged as 0, 0.083, 0.5, 1, 2, 4, 8, 12, 24, 48, 72h post-dose for all three platinum-based anticancer drugs. When each time point reached, blood samples (about 800 µl) were collected from the fossa orbitalis. 150 µl of the blood was spiked into another 1.5 ml tube as the blood sample. The rest of the blood was centrifuged immediately at 8,000 rpm for 10 min and the supernatant plasma was harvested. 50 µl of the supernatant plasma was spiked into 1.5 ml for determining total platinum in plasma sample and 50 µl of the supernatant plasma was spiked into 1.5 ml tube for determining intact platinum-based drug in plasma. The remaining plasma was used to prepare ultrafiltrate plasma with Amicon® Ultra 10K Centrifugal Filter Devices, centrifuged at 14,000 g for 20 min. All the samples were stored at -80 °C until analysis.
(§3) The pharmacokinetic parameters were calculated using the software WinNonlion Version 6.4 by non-compartmental method. Statistical significance was tested by Student’s t -test. P < 0.05 was considered statistically significant, while P < 0.01 was considered highly significant.

[2] = Pharmacokinetics of total platinum in rats (ICP-MS) in blood, plasma and ultrafiltrate plasma; settings: intraperitoneal, 16.7 nmol/kg, mean ± sd (n = 6)
Experimental: The biological samples were pretreatmented by adding 60-fold volume of ICP-MS diluent, which is an aqueous solution containing 2% nitric acid and 0.5% Triton. After vortex for 30 s, the samples were placed quietly for few minutes to obtain a clear supernatant for ICP-MS analysis of total platinum.
Platinum determination was performed with a NexION 2000 Inductively Coupled Plasma-Mass Spectrometer and a Syngistix™ Software-ES version 2.4 (PerkinElmer, USA). Instrumental settings were optimized in order to yield maximum sensitivity for platinum, with the scan mode Peak Hopping, Dwell time per AMU 50 ms and single MCA Channel. […] The assay method was evaluated with four kinds of matrix including blood, plasma, ultrafiltrate plasma, and cell lysate.
as §1, §2, §3

[3] = system: HCT-116 cells; assay: Subcellular distribution of oxaliplatin (total Pt by ICP-MS) in HCT-116 cells; settings: HCT-116, 200 µm oxaliplatin, within 2 h
Experimental: (§4) Human colon cancer HCT-116 and LOVO cell line was purchased from cell bank of Shanghai Institute of Biochemistry and Cell Biology (Shanghai, China). HCT-116 cells and LOVO cells were maintained as monolayer cultures respectively in McCoy’s 5a medium and F-12K medium, supplemented with 10% fetal bovine serum, 1% penicillin and streptomycin, in a water-saturated atmosphere (95% air/5% CO2) at 37°C.
(§5) We treated the cell monolayers in the same way as the uptake study above.
(§6) Finally, all the monolayers of cells treated with drug-containing medium were washed three times with cold HBSS. Then cells were harvested by 0.25% trypsin digestion and the resulting cell suspension was centrifuged at 1,000 rpm for 5 min. For the uptake and elimination studies, pellets were then diluted in appropriate volume of water and repeatedly freeze-thawed three times to obtain drug-containing cell samples. For the subcellular distribution study, the pellets were further treated according to the manufacturer’s protocol of mitochondrial/nuclear separation kit (KeyGEN BioTECH, Nanjing, China) with differential centrifugation method to prepare the isolated cytosol, nucleus, and mitochondria samples. The cytosol, nucleus, and mitochondria were dissolved in the corresponding buffer salt from the instruction. […]
(§7) All the prepared subcellular samples for cytosol, nucleus, and mitochondria are determined by ICP-MS method.

[4] = system: HCT-116 cells; assay: Elimination of oxaliplatin in HCT-116 cells; type: in vitro ADME, Human; settings: HCT-116, 200 µm oxaliplatin 30 min
Experimental: (§8) Cells were used for studying cellular pharmacokinetics of oxaliplatin.
(§9) Then the drug-containing medium was discarded and the cell monolayers were washed three times with cold HBSS. After that, fresh blank medium was added to the monolayers with incubation for different times of 5, 15, 30, 45, 60, 120 min.
(§10) To evaluate the elimination behavior of oxaliplatin in colon cancer cells, both oxaliplatin and total platinum of samples are determined by UPLC-MS/MS and ICP-MS method. The results are all normalized to cell protein.

[5] = system: LOVO cells; assay: Uptake of oxaliplatin (total platinum and intact drug) in LOVO cells
Experimental: as §4
(§11) For the temperature dependent study, the cell monolayers were treated with 4 ml drug-containing medium at 200 µm for 30 min incubation respectively at 4 °C and 37 °C.
(§12) Finally, all the monolayers of cells treated with drug-containing medium were washed three times with cold HBSS. Then cells were harvested by 0.25% trypsin digestion and the resulting cell suspension was centrifuged at 1,000 rpm for 5 min. For the uptake and elimination studies, pellets were then diluted in appropriate volume of water and repeatedly freeze-thawed three times to obtain drug-containing cell samples. For the subcellular distribution study, the pellets were further treated according to the manufacturer’s protocol of mitochondrial/nuclear separation kit (KeyGEN BioTECH, Nanjing, China) with differential centrifugation method to prepare the isolated cytosol, nucleus, and mitochondria samples. The cytosol, nucleus, and mitochondria were dissolved in the corresponding buffer salt from the instruction. An aliquot of 20 μl of each cellular or subcellular sample was removed for protein determination using BCA protein assay kit according to the manufacturer’s instructions (micro-well plate protocol).

[6] = system: LOVO cells; assay: Elimination of oxaliplatin in LOVO cells; type: in vitro ADME, Human; settings: 200 µm oxaliplatin 30 min
Experimental: as §8, §9, §10

[7] = system: LOVO cells; assay: Subcellular distribution of oxaliplatin (total Pt by ICP-MS) in LOVO cells; settings: 200 µm oxaliplatin, within 2 h
Experimental: as §4, §5, §6, §7

[8] = system: HCT-116 cells; assay: Uptake of oxaliplatin (total platinum and intact drug) in HCT-116 cells
Experimental: as §4, §11, §12

[9] = intact drug in blood, 16.7 nmol/kg, mean ± sd (n = 6)
[10] = intact drug in plasma, 16.7 nmol/kg, mean ± sd (n = 6)
[11] = intact drug in ultrafiltrate plasma, 16.7 nmol/kg, mean ± sd (n = 6)
[12] = total Pt in ultrafiltrate plasma
[13] = ng Pt/mg protein of subcellular organelles
[14] = 200 µm oxaliplatin, 15-120 min, normalized to cellular protein
[15] = HCT-116, 200 µm oxaliplatin, 15-120 min, normalized to cellular protein

Structure (SMILES)	Cl [1, 9]	Cmax [1, 9] [µM]	T1/2 [1, 9] [h]	Vz [1, 9]	Cl [1, 10]	Cmax [1, 10] [µM]	T1/2 [1, 10] [h]	Vz [1, 10]	Cl [1, 11]	Cmax [1, 11] [µM]	T1/2 [1, 11] [h]	Vz [1, 11] [L/kg]	complete elimination time of intact drug ([1]; intact drug in blood) [h]	Vz ([2]; total Pt in blood) [L/kg]	Cl ([2]; total Pt in plasma) [mL/day/kg]	Vz ([2]; total Pt in plasma) [L/kg]	Cl [2, 12] [mL/day/kg]	Vz [2, 12] [L/kg]	other results
O=C1[O][Pt]2([NH][C@@H]3CCCC[C@H]3[NH]2)[O]C1=O [oxaliplatin, Oxaliplatin]	49 mL/h/kg and 49 ± 6.6 mL/h/kg	0.42 ± 0.06	0.55 ± 0.04	0.0408 L/kg and 0.0408 ± 0.0058 L/kg	6.9 mL/h/kg and 6.9 ± 0.6 mL/h/kg	3.9 ± 0.34	0.18 ± 0.00	0.0018 L/kg and 0.0018 ± 0.0001 L/kg	7.2 mL/h/kg and 7.2 ± 1.7 mL/h/kg	3.93 ± 0.45	0.18 ± 0.01	0.0019 ± 0.0006	2	0.001	2.4	0.004	33.6	0.038	subcellular accumulation of Pt in organelles over incubation time [3]: increased with the increasing incubation time; order of Pt concentration in cytosol, mitochondria and nucleus [3, 13]: the concentration of Pt in cytosol is more than that in mitochondria, followed by the concentration of Pt in nucleus; time to complete elimination of cellular intact oxaliplatin ([4]; then blank medium): 1 h; cellular platinum after change to blank medium ([4]; then blank medium up to 2 h): just has a little decrease in 2 h; cellular concentration of total platinum and intact oxaliplatin versus medium concentration ([5]; 20-500 µM oxaliplatin, 30 min): increased with increasing medium concentration of oxaliplatin; cellular accumulation of intact oxaliplatin over incubation time [5, 14]: increased over incubation time at the beginning of drug treatment (0–45 min), then gradually decreased (45–120 min); cellular total platinum over incubation time [5, 14]: increased within increasing incubation time; cellular accumulation of platinum or oxaliplatin versus temperature ([5]; 200 µm oxaliplatin, 30 min, 4 °C vs 37 °C, P < 0.001): significant higher at 37 °C than that at 4 °C; time to complete elimination of cellular intact oxaliplatin ([6]; then blank medium): 1 h; cellular platinum after change to blank medium ([6]; then blank medium up to 2 h): just has a little decrease in 2 h; subcellular accumulation of Pt in organelles over incubation time [7]: increased with the increasing incubation time; order of Pt concentration in cytosol, mitochondria and nucleus [7, 13]: the concentration of Pt in cytosol is more than that in mitochondria, followed by the concentration of Pt in nucleus; cellular concentration of total platinum and intact oxaliplatin versus medium concentration ([8]; HCT-116, 20-500 µM oxaliplatin, 30 min): increased with increasing medium concentration of oxaliplatin; cellular accumulation of intact oxaliplatin over incubation time [8, 15]: increased over incubation time at the beginning of drug treatment (0–45 min), then gradually decreased (45–120 min); cellular total platinum over incubation time [8, 15]: increased within increasing incubation time; cellular accumulation of platinum or oxaliplatin versus temperature ([8]; HCT-116, 200 µm oxaliplatin, 30 min, 4 °C vs 37 °C, P < 0.001): significant higher at 37 °C than that at 4 °C
N.N.O=C([O-])C1(C(=O)[O-])CCC1.[Pt+2] [carboplatin, Carboplatin]	1.1 mL/h/kg and 1.1 ± 0.1 mL/h/kg	9.9 ± 0.45	2.04 ± 0.13	0.0033 L/kg and 0.0033 ± 0.0004 L/kg	0.1 mL/h/kg	11.2 ± 0.49	1.95 ± 0.12	0.0028 L/kg and 0.0028 ± 0.0003 L/kg	1.2 mL/h/kg and 1.2 ± 0.2 mL/h/kg	10.1 ± 0.75	1.52 ± 0.49	0.0027 ± 0.0009	12	0.009	7.92	0.014	16.1	0.016	Tmax [1, 11]: 25.2 ± 11.4 min
